Source: publication PMC4965013, “Open Source Drug Discovery with the Malaria Box Compound Collection for Neglected Diseases and Beyond” (PLoS Pathogens, 2016)
Converted amounts (≈) assume the structure as drawn. Read-outs that look alike come from different tables or passages of the source.

Assays:
[1] = tested on: A. ceylanicum L3 larvae; experiment: A. ceylanicum L3 larvae J. Keiser; format: cell-based, Ancylostoma ceylanicum; details: 200µM
[2] = tested on: T. muris L1 larvae; experiment: T. muris L1 larvae J. Keiser; format: cell-based, Trichuris muris; details: 100µM
[3] = tested on: Staphylococcus aureus; experiment: S. aureus agar spot / MIC Baker; details: read-out: Minimum Inhibitory Concentrations (MIC) S. aureus
[4] = tested on: Acinetobacter baumannii ATCC 19606; experiment: A. baumannii agar spot / MIC Baker; details: ATCC19606, read-out: Minimum Inhibitory Concentrations (MIC) A. baumanii
[5] = tested on: T. b. brucei Squib 427; experiment: T. b. brucei growth Maes; format: cell-based, Trypanosoma brucei brucei; details: non-toxic, positive in all T. brucei screens
[6] = tested on: P. falciparum 3D7 or K1; experiment: Asexual Blood Stage Imaging Assay (DAPI) V. Avery; format: cell-based; details: Plasmodium falciparum
[7] = tested on: P. falciparum FCR3; experiment: FCR3 SYBR Green I assay Horii; format: cell-based; details: Plasmodium falciparum, FCR3, 72 h; read-out: P. falciparum FCR3 asexual blood stage IC50 Horii
Description: Column T: Horii group (data presented first in this paper). IC50 against asexual blood stage P. falciparum FCR3. Methods: For measurement of anti-Plasmodium activities, P. falciparum FCR3 strain was cultured in the RPMI 1640 medium supplemented with 10% human type A serum from in-house volunteers at 37°C, 5% O2 and 5% CO2 (0.5% parasitemia and 2% hematocrit) for 72 h in the presence of the compounds (DMSO final concentration, 0.25%). The growth inhibition of P. falciparum was determined using a SYBR Green I assay. Lysis buffer (20 mM Tris (pH 7.5), 5 mM EDTA, 0.008% (w/v) saponin and 0.08% (v/v) Triton X-100) containing SYBR Green I was added to each well and incubated at room temperature and dark condition for 1-5 hours. After the incubation, amounts of parasite DNA were measured as fluorescence at 485 nm of excitation and 530 nm of emission. An unpublished antimalarial compound was used as positive control in the assay.

[8] = tested on: P. falciparum 3D7, HB3, Dd2, W2, K1, FCR3; experiment: Asexual EC50 image assay, six strains, Ayong; format: cell-based; details: Plasmodium falciparum
[9] = tested on: P. falciparum HB3; experiment: Stage-specificity / mitochondrial integrity image assay Ayong; format: cell-based; details: 10µM
[10] = tested on: P. falciparum NF54Pfs16 gametocytes stage I-III; details: ref [61]; read-out: gametocyte early stage (I-III) luciferase EC50; cited from earlier work
[11] = tested on: P. falciparum NF54Pfs16 gametocytes stage IV-V; details: cited from earlier work
[12] = tested on: P. falciparum NF54 GFP-Pfs16 gametocytes stage I-III; details: ref [64]; read-out: gametocyte early stage (I-III) GFP-MTR EC50; cited from earlier work
[13] = tested on: P. falciparum NF54 GFP-Pfs16 gametocytes stage IV-V; details: ref [64]; read-out: gametocyte late stage (IV-V) GFP-MTR EC50; cited from earlier work
[14] = tested on: P. falciparum Dd2; experiment: Malaria Sybr Green I Fluorescence assay Dd2 Horrocks; format: cell-based; details: Plasmodium falciparum, DD2, 48 h; read-out: P. falciparum Dd2 asexual blood stage EC50 Horrocks
Description: Column S: Horrocks group (data presented first in this paper). Asexual Dd2 inhibition of growth (IC50s): IC50 for the Dd2 clone of Plasmodium falciparum were determined using the Malaria Sybr Green I Fluorescence assay. Drug assays were initiated using a 2% trophozoite stage parasitaemia and 2% hematocrit and fluorescence measured after 48 h as fully described in Hasenkamp et al.[53]. Log dose-response curves were plotted in GraphPad Prism (v5.0). The controls for Dd2 using our 48hr Sybr Green I assay were (rounded to nearest nM): Chloroquine 209nM, Mefloquine 11nM, Quinine 246nM, Dihydroartemisinin 4nM, Artemether 10nM, Atovaquone 3nM.

[15] = tested on: P. falciparum 3D7; experiment: [3H]-hypoxanthine growth inhibition, modified HCO3- or O2; format: cell-based; details: for IC50: Plasmodium falciparum
[16] = tested on: P. falciparum 3D7 trophozoites; experiment: Metabolomic fingerprint profiling LC-MS; format: cell-based, Plasmodium falciparum; design: UDP-D-glucose / ADP-D-glucose: unit not given here
[17] = tested on: P. falciparum; experiment: EC50 listed in S2 Table Metabolomics (used to set the concentration tested); format: cell-based; details: Plasmodium falciparum; EC50 used for Factor_XEC50 in metabolomics; read-out: EC50_nM
[18] = read-out: P. falciparum 3D7 asexual blood stage EC50 (Image) V. Avery
[19] = read-out: P. falciparum K1 asexual blood stage EC50 (Image) V. Avery
[20] = metabolite level change after treatment

ivermectin [reference compound]
A. ceylanicum positive control effect [1]: caused death of all worms | T. muris positive control effect [2]: caused death of all worms

c1ccc([C@H]2CN3CCSC3=N2)cc1 [Levamisole, reference compound]
A. ceylanicum positive control effect [1]: caused death of all worms | T. muris positive control effect [2]: caused death of all worms

O=C(Nc1ccc(F)c(Cl)c1)Nc1ccc(Cl)c(Cl)c1 [MMV665953]
MIC [3]: 1.25 to 5 µM (≈ 0.417 to 1.67 µg/mL) | MIC [4]: 1.25 to 5 µM (≈ 0.417 to 1.67 µg/mL)

CN(C)CCCNCc1ccc(-c2ccc(F)c(Cl)c2)o1 [MMV020505]
Selectivity Index T. brucei screens [5]: > 10

C[C@@H]1CC[C@H]2[C@@H](C)C(=O)O[C@@H]3O[C@@]4(C)CC[C@@H]1[C@]32OO4 [Artemisinin, reference compound]
EC50 [6, 18]: 1 nM | EC50 [6, 19]: 1 nM | IC50 [7]: 47 nM | EC50 ([8]; read-out: P. falciparum 3D7 asexual blood stage EC50 (Image) Ayong): 11.7 ± 1.4 nM | EC50 ([8]; read-out: P. falciparum Dd2 asexual blood stage EC50 (Image) Ayong): 5.3 ± 1.2 nM | EC50 ([8]; read-out: P. falciparum FCR3 asexual blood stage EC50 (Image) Ayong): 5 ± 0.4 nM | EC50 ([8]; read-out: P. falciparum HB3 asexual blood stage EC50 (Image) Ayong): 8.6 ± 1.2 nM | EC50 ([8]; read-out: P. falciparum K1 asexual blood stage EC50 (Image) Ayong): 3.5 ± 0.4 nM | EC50 ([8]; read-out: P. falciparum W2 asexual blood stage EC50 (Image) Ayong): 5.7 ± 0.5 nM | Effects on asexual life cycle progression (treatment at ER, LR, T, S; merozoites; mitochondrial integrity) [9]: LR-X-S-X-o-o | EC50 [10]: 13 nM | EC50 ([11]; ref [62], read-out: gametocyte late stage (IV-V) luciferase EC50): 26 nM | EC50 [12]: 1 nM | EC50 [13]: 5 nM

CCN(CC)CCCC(C)Nc1ccnc2cc(Cl)ccc12 (stereo not shown) [Chloroquine, reference compound]
EC50 [6, 18]: 3 nM | EC50 [6, 19]: 199 nM | EC50 [14]: 209 nM | IC50 [7]: 125 nM | Effects on asexual life cycle progression (treatment at ER, LR, T, S; merozoites; mitochondrial integrity) [9]: LR-X-S-o-o-o | fold change (IC50normal/ IC50hypoxia) [15]: 1.6 | fold change (IC50reduced/IC50normal) [15]: 2.3 | IC50 ([15]; 3D7, read-out: P. falciparum 3D7 IC50 1% O2, 1% O2 hypoxia): 7 nM | IC50 ([15]; 3D7, read-out: P. falciparum 3D7 IC50 5% O2): 11 nM | IC50 ([15]; 3D7, read-out: P. falciparum 3D7 IC50 HCO3- (2g/L), standard media): 16 nM | IC50 ([15]; 3D7, HCO3- reduced media, read-out: P. falciparum 3D7 IC50 HCO3- reduced): 36 nM | EC50 [10]: 77 nM | IC50 ([11]; ref [69], read-out: late stage gametocyte luciferase, no inhibition up to): > 10000 nM

CCN1CCN(Cc2ccc(NC(=O)c3cc4ccc5cccnc5c4[nH]3)cc2)CC1 [MMV020548]
Selectivity Index T. brucei screens [5]: > 10 | Acetyllysine ([16]; S2 Table Metabolomics, metabolite Acetyllysine): -1.074 | N-acetyl-L-ornithine ([16]; S2 Table Metabolomics, metabolite N-acetyl-L-ornithine): -0.7002 | N-carbamoyl-L-aspartate ([16]; S2 Table Metabolomics, metabolite N-carbamoyl-L-aspartate): 0.01627 | NADPH ([16]; S2 Table Metabolomics, metabolite NADPH): -0.7588 | dAMP ([16]; S2 Table Metabolomics, metabolite dAMP): 0.7039 | dCMP ([16]; S2 Table Metabolomics, metabolite dCMP): 0.2246 | dTDP ([16]; S2 Table Metabolomics, metabolite dTDP): 0.1022 | dTMP ([16]; S2 Table Metabolomics, metabolite dTMP): 0.01221 | dTTP ([16]; S2 Table Metabolomics, metabolite dTTP): -0.4268 | dihydroorotate ([16]; S2 Table Metabolomics, metabolite dihydroorotate): 0.1148 | orotate ([16]; S2 Table Metabolomics, metabolite orotate): 0.2392 | DLH ([16]; S2 Table Metabolomics, peptide DLH): -1.531 | DLS/SDL/SID ([16]; S2 Table Metabolomics, peptide DLS/SDL/SID): -1.1 | PD ([16]; S2 Table Metabolomics, peptide PD): -1.147 | PEE ([16]; S2 Table Metabolomics, peptide PEE): -0.7652 | PVNF ([16]; S2 Table Metabolomics, peptide PVNF): -1.327 | 3-phosphoglycerate ([16]; metabolite 3-phosphoglycerate, S2 Table Metabolomics): -0.1406 | ADP-D-glucose ([16]; metabolite ADP-D-glucose, S2 Table Metabolomics): 0.03533 | ATP ([16]; metabolite ATP, S2 Table Metabolomics): -0.3247 | CDP ([16]; metabolite CDP, S2 Table Metabolomics, change in metabolite level after compound treatment): -0.06734 | D-sedoheptulose-1/7-phosphate ([16]; metabolite D-sedoheptulose-1/7-phosphate, S2 Table Metabolomics, change in metabolite level after compound treatment): -0.2201 | FAD ([16]; metabolite FAD, S2 Table Metabolomics): -0.1695 | GMP ([16]; metabolite GMP, S2 Table Metabolomics, change in metabolite level after compound treatment): 0.03987 | NAD+ ([16]; metabolite NAD+, S2 Table Metabolomics): -0.004207 | NADP+ ([16]; metabolite NADP+, S2 Table Metabolomics): -0.07599 | Octoluse Bisphosphate ([16]; metabolite Octoluse Bisphosphate, S2 Table Metabolomics, change in metabolite level after compound treatment): -0.5083 | Pyroglutamic acid ([16]; metabolite Pyroglutamic acid, S2 Table Metabolomics): 0.8773 | UDP-D-glucose ([16]; metabolite UDP-D-glucose, S2 Table Metabolomics): -0.04378 | UDP-D-glucuronate ([16]; metabolite UDP-D-glucuronate, S2 Table Metabolomics): -0.2395 | UDP-N-acetyl-glucosamine ([16]; metabolite UDP-N-acetyl-glucosamine, S2 Table Metabolomics): -0.0477 | UDP ([16]; metabolite UDP, S2 Table Metabolomics, change in metabolite level after compound treatment): -0.1277 | UMP ([16]; metabolite UMP, S2 Table Metabolomics, change in metabolite level after compound treatment): -0.04731 | UTP ([16]; metabolite UTP, S2 Table Metabolomics, change in metabolite level after compound treatment): -0.476 | a-ketoglutarate ([16]; metabolite a-ketoglutarate, S2 Table Metabolomics): 0.2925 | citrate/isocitrate ([16]; metabolite citrate/isocitrate, S2 Table Metabolomics, change in metabolite level after compound treatment): 0.7028 | cytidine ([16]; metabolite cytidine, S2 Table Metabolomics): 0.2393 | dATP ([16]; metabolite dATP, S2 Table Metabolomics): -0.2064 | dGMP/AMP ([16]; metabolite dGMP/AMP, S2 Table Metabolomics, change in metabolite level after compound treatment): 0.2962 | fumarate ([16]; metabolite fumarate, S2 Table Metabolomics, change in metabolite level after compound treatment): -0.1605 | glucose-1/6-phosphate ([16]; metabolite glucose-1/6-phosphate, S2 Table Metabolomics, change in metabolite level after compound treatment): -0.1021 | glycerate ([16]; metabolite glycerate, S2 Table Metabolomics, change in metabolite level after compound treatment): 0.2926 | guanine ([16]; metabolite guanine, S2 Table Metabolomics, change in metabolite level after compound treatment): 0.4901 | guanosine ([16]; metabolite guanosine, S2 Table Metabolomics, change in metabolite level after compound treatment): 0.1417 | hypoxanthine ([16]; metabolite hypoxanthine, S2 Table Metabolomics): 0.9061 | indole ([16]; metabolite indole, S2 Table Metabolomics): 0.3876 | inosine ([16]; metabolite inosine, S2 Table Metabolomics, change in metabolite level after compound treatment): 0.524 | 2_3-Diphosphoglyceric acid [16, 20]: -0.4996 | 4-phosphopantothenate [16, 20]: 0.07924 | 6-phospho-D-gluconate [16, 20]: -0.3745 | FMN [16, 20]: -0.06134 | IMP [16, 20]: 0.03526 | Pyrophosphate [16, 20]: -0.5624 | Sedoheptoluse bisphosphate [16, 20]: -0.2788 | cyclic-AMP [16, 20]: -0.1988 | glutathione disulfide [16, 20]: -0.4809 | lactate [16, 20]: 0.3196 | myo-inositol [16, 20]: -0.02428 | nicotinate ([16]; metabolite nicotinate, S2 Table Metabolomics): 0.6741 | ornithine ([16]; metabolite ornithine, S2 Table Metabolomics): -0.3153 | phosphoenolpyruvate ([16]; metabolite phosphoenolpyruvate, S2 Table Metabolomics): 0.09829 | pyruvate ([16]; metabolite pyruvate, S2 Table Metabolomics, change in metabolite level after compound treatment): 0.858 | ribose-phosphate ([16]; metabolite ribose-phosphate, S2 Table Metabolomics): -0.1246 | sarcosine/alanine ([16]; metabolite sarcosine/alanine, S2 Table Metabolomics, change in metabolite level after compound treatment): 0.05828 | sn-glycerol-3-phosphate ([16]; metabolite sn-glycerol-3-phosphate, S2 Table Metabolomics): -0.07501 | succinate/methylmalonic acid ([16]; metabolite succinate/methylmalonic acid, S2 Table Metabolomics, change in metabolite level after compound treatment): -0.07231 | uridine ([16]; metabolite uridine, S2 Table Metabolomics, change in metabolite level after compound treatment): 0.7812 | xanthosine ([16]; metabolite xanthosine, S2 Table Metabolomics, change in metabolite level after compound treatment): 0.03293 | EC50 [17]: 361 nM
